The nature of this data set: Solubility of antibiotics and polymer in organic solvents.

Take `CC[C@H]1OC(=O)[C@H](C)[C@@H](O[C@H]2C[C@@](C)(OC)[C@@H](O)[C@H](C)O2)[C@H](C)[C@@H](O[C@@H]2O[C@H](C)C[C@H](N(C)C)[C@H]2O)[C@](C)(O)C[C@@H](C)C(=O)[C@H](C)[C@@H](O)[C@]1(C)O` [erythromycin]: the “solubility in ethyl acetate, dichloromethane, and tetrahydrofuran” value is “dissolved”.

These data come from patent US20100215716A1, “COMPOSITIONS AND METHODS FOR COATING ORTHOPEDIC IMPLANTS” (Biomet Manufacturing Corp., priority 2009, published 2010).
